A short description of experiment [1]: Displacement of [3H]PDBu from partially purified rabbit brain PKC. On the set-up: species or system Oryctolagus cuniculus.
Experiment [2] relates to HL-60. The experiment can be described thus: Induction of human HL-60 cell adhesion after 48 hrs. The experiment is classed as functional.
Experiment [3] has as its system HL-60. The experiment can be described thus: Induction of TNFalpha release from human HL-60 cells after 24 hrs by ELISA. The format is functional.
Experiment [4] is filed under the species Mus musculus. The experiment can be described thus: Carcinogenesis in CD1 mouse skin assessed as tumor incidence at 400 nmol twice a week for 20 weeks. The format is functional.
The species entered for experiment [5] is Oryctolagus cuniculus. Briefly: Activation of rabbit brain PKC assessed as [32P] incorporation in histone 3-S from [gamma32P]ATP.
The species named for experiment [6] is Mus musculus. Briefly: Carcinogenesis in CD1 mouse skin assessed as tumor incidence at 4 nmol twice a week for 20 weeks. The experiment is classed as functional.

This is an account of results in ChEMBL document CHEMBL1158017, “28-deacetylbelamcandal, a tumor-promoting triterpenoid from Iris tectorum” (J Nat Prod, 1999).

For orientation: IC50 means the concentration that inhibits the measured activity by half.

Each structure is given as a SMILES string.

On to `C=C(/C=C/C=C(/CO)[C@@H]1CC[C@]2([C@H](CCCO)/C(=C(/C)C=O)CC[C@]2(C)O)[C@H]1O)CCC=C(C)C`, for which, in experiment [1], the IC50 worked out at 200 nM. The values for the Activity in experiment [2] and in experiment [4] were 500 nM and 64.3%, respectively. The compound also registered an ED100 in experiment [3] of 3000 nM. The ED50 in experiment [5] is 300 nM.

`CCCCCCCCCCCCCC(=O)O[C@@H]1[C@@H](C)[C@@]2(O)[C@@H](C=C(CO)C[C@]3(O)C(=O)C(C)=C[C@@H]23)[C@@H]2C(C)(C)[C@]12OC(C)=O` [PHORBOL MYRISTATE ACETATE]: the Activity in experiment [6] was found to be 93.3%; in experiment [2], 3 nM. The compound further yielded an IC50 in experiment [1] of 15 nM. Also, in experiment [3], the ED100 came out at 6 nM. The ED50 in experiment [5] amounted to 15 nM.
